Source: PubChem BioAssay (NCI)
Several values for one entry are separate records, joined by “and”; a condition that tells them apart may be missing. Equal values may be shown once.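 Briefly, cells in 96-well plates were exposed to five compound concentrations for 48 h, and endpoints were estimated by linear interpolation. At the GI50, growth is halved. TGI: total growth inhibition.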

Legend:
Test in all cases: NCI tumour cell line growth inhibition, 48 h
RPMI-8226 leukemia = tested on: RPMI-8226 leukemia
U251 CNS = tested on: U251 CNS
LOX IMVI melanoma = tested on: LOX IMVI melanoma
UACC-62 melanoma = tested on: UACC-62 melanoma
RXF 393 renal = tested on: RXF 393 renal
T-47D breast = tested on: T-47D breast
K-562 leukemia = tested on: K-562 leukemia
SF-295 CNS = tested on: SF-295 CNS
SF-539 CNS = tested on: SF-539 CNS
PC-3 prostate = tested on: PC-3 prostate

## N#Cc1c(N)nc(N2CCOCC2)c(C#N)c1-c1c(Cl)cccc1Cl
RPMI-8226 leukemia
  GI50: 4.41 µM
  TGI: 47.5 µM
U251 CNS
  GI50: 3.89 µM
  TGI: 18.5 µM
LOX IMVI melanoma
  GI50: 5.88 µM
  TGI: 24 µM
UACC-62 melanoma
  GI50: 3.87 µM
  TGI: 19.7 µM
RXF 393 renal
  GI50: 4.58 µM
  TGI: 28.3 µM
T-47D breast
  GI50: 3.43 µM
  TGI: 10.1 µM
K-562 leukemia
  GI50: 3.3 µM
  TGI: 11.7 µM
SF-295 CNS
  GI50: 4.4 µM
  TGI: 43.2 µM
SF-539 CNS
  GI50: 12.2 µM
  TGI: 49.8 µM
PC-3 prostate
  GI50: 5.64 µM
  TGI: 31.1 µM

## COc1cc(C2NC(=O)C(C#N)=C(Nc3cccc(C)c3)S2)ccc1O (stereo not drawn)
RPMI-8226 leukemia
  GI50: > 100 µM
  TGI: > 100 µM
U251 CNS
  GI50: > 100 µM
  TGI: > 100 µM
LOX IMVI melanoma
  GI50: > 100 µM
  TGI: > 100 µM
UACC-62 melanoma
  GI50: > 100 µM
  TGI: > 100 µM
RXF 393 renal
  GI50: > 100 µM
  TGI: > 100 µM
T-47D breast
  GI50: > 100 µM
  TGI: > 100 µM
K-562 leukemia
  GI50: > 100 µM
  TGI: > 100 µM
SF-295 CNS
  GI50: > 100 µM
  TGI: > 100 µM
SF-539 CNS
  GI50: > 100 µM
  TGI: > 100 µM
PC-3 prostate
  GI50: > 100 µM
  TGI: > 100 µM

## COc1cc(C(=O)n2nc(N)c3c(C)cc(C)nc32)cc(OC)c1OC
RPMI-8226 leukemia
  GI50: > 82.1 µM
  TGI: > 100 µM
U251 CNS
  GI50: > 82.9 µM
  TGI: > 100 µM
LOX IMVI melanoma
  GI50: > 100 µM
  TGI: > 100 µM
UACC-62 melanoma
  GI50: 54.1 µM
  TGI: > 100 µM
RXF 393 renal
  GI50: 25.3 µM
  TGI: > 100 µM
T-47D breast
  GI50: > 65.4 µM
  TGI: > 100 µM
K-562 leukemia
  GI50: 0.488 µM
  TGI: > 100 µM
SF-295 CNS
  GI50: > 100 µM
  TGI: > 100 µM
SF-539 CNS
  GI50: > 23.4 µM
  TGI: > 100 µM
PC-3 prostate
  GI50: > 100 µM
  TGI: > 100 µM

## CC1=C[C@@H]2c3c(c(O)c(O)c4oc5cc(O)cc(O)c5c(=O)c34)[C@@H](c3cc(O)c(O)c4oc5cc(O)cc(O)c5c(=O)c34)[C@@H]2C(C)(C)C1
RPMI-8226 leukemia
  GI50: 1.96 µM
  TGI: 10.3 µM
U251 CNS
  GI50: 2.34 µM
  TGI: 13.9 µM
LOX IMVI melanoma
  GI50: 1.53 µM
  TGI: 4.26 µM
UACC-62 melanoma
  GI50: 1.88 µM
  TGI: 5.72 µM
RXF 393 renal
  GI50: 5.69 µM
  TGI: 17.3 µM
T-47D breast
  GI50: 4.6 µM
  TGI: 19.2 µM
K-562 leukemia
  GI50: 2.34 µM
  TGI: 80 µM
SF-295 CNS
  GI50: 2.87 µM
  TGI: 11.3 µM
SF-539 CNS
  GI50: 4.7 µM
  TGI: 17.2 µM
PC-3 prostate
  GI50: 3.33 µM
  TGI: 14 µM

## COc1ccc2c(c1)/C(=N/OC(C)=O)c1c-2c(OC)nc2ccccc12
RPMI-8226 leukemia
  GI50: > 100 µM
  TGI: > 100 µM
U251 CNS
  GI50: > 100 µM
  TGI: > 100 µM
LOX IMVI melanoma
  GI50: > 100 µM
  TGI: > 100 µM
UACC-62 melanoma
  GI50: > 100 µM
  TGI: > 100 µM
RXF 393 renal
  GI50: 77.7 µM
  TGI: > 100 µM
T-47D breast
  GI50: 27.7 µM
  TGI: > 100 µM
K-562 leukemia
  GI50: > 100 µM
  TGI: > 100 µM
SF-295 CNS
  GI50: > 100 µM
  TGI: > 100 µM
SF-539 CNS
  GI50: 72.9 µM
  TGI: > 100 µM
PC-3 prostate
  GI50: > 100 µM
  TGI: > 100 µM

## O=C1C=CC(=O)c2c1nc(CBr)[nH]c2=O
RPMI-8226 leukemia
  TGI: > 100 µM
U251 CNS
  TGI: > 100 µM
LOX IMVI melanoma
  TGI: > 100 µM
UACC-62 melanoma
  TGI: > 100 µM
RXF 393 renal
  TGI: > 100 µM
T-47D breast
  TGI: > 100 µM
K-562 leukemia
  TGI: > 100 µM
SF-295 CNS
  TGI: > 100 µM
SF-539 CNS
  TGI: > 100 µM
PC-3 prostate
  TGI: > 100 µM

## FC(F)(F)c1cccc(-c2[nH]ncc2-c2nnnn2-c2ccccc2)c1
RPMI-8226 leukemia
  GI50: 3.12 µM
  TGI: 13.3 µM
U251 CNS
  GI50: 4.69 µM
  TGI: 17.1 µM
LOX IMVI melanoma
  GI50: 6.41 µM
  TGI: 19.5 µM
UACC-62 melanoma
  GI50: 4.22 µM
  TGI: 15.8 µM
RXF 393 renal
  GI50: 2.91 µM
  TGI: 11.7 µM
T-47D breast
  GI50: 4.23 µM
  TGI: 24.7 µM
K-562 leukemia
  GI50: 3.3 µM
  TGI: 15.8 µM
SF-295 CNS
  GI50: 2.49 µM
  TGI: 9.04 µM
SF-539 CNS
  GI50: 6.79 µM
  TGI: 21 µM
PC-3 prostate
  GI50: 6.3 µM
  TGI: 51.2 µM

## CCS(=O)(=O)c1ccc(OC)c(Nc2ncc(-c3cccc(F)c3)o2)c1
RPMI-8226 leukemia
  GI50: > 25 µM
  TGI: > 25 µM
U251 CNS
  GI50: > 25 µM
  TGI: > 25 µM
LOX IMVI melanoma
  GI50: > 25 µM
  TGI: > 25 µM
UACC-62 melanoma
  GI50: > 25 µM
  TGI: > 25 µM
RXF 393 renal
  GI50: > 20.8 µM
  TGI: > 25 µM
T-47D breast
  GI50: > 25 µM
  TGI: > 25 µM
K-562 leukemia
  GI50: > 25 µM
  TGI: > 25 µM
SF-295 CNS
  GI50: > 25 µM
  TGI: > 25 µM
SF-539 CNS
  GI50: > 25 µM
  TGI: > 25 µM
PC-3 prostate
  GI50: > 25 µM
  TGI: > 25 µM

## CC1(C)C(=O)/C=C\C(=O)C(C)(C)C(=O)/C=C\C(=O)C(C)(C)C2=CC=C(O2)C(C)(C)C(=O)/C=C\C1=O
RPMI-8226 leukemia
  TGI: 3.17 µM
U251 CNS
  TGI: 30.4 µM
LOX IMVI melanoma
  TGI: 13 µM
UACC-62 melanoma
  TGI: 15.7 µM
RXF 393 renal
  TGI: 4.73 µM
T-47D breast
  TGI: 18.5 µM
K-562 leukemia
  TGI: > 46.9 µM
SF-295 CNS
  TGI: 31.1 µM
SF-539 CNS
  TGI: 17.7 µM
PC-3 prostate
  TGI: 29.2 µM

## COc1ccc2c(c1)nnc1c3cccnc3[nH]c21
RPMI-8226 leukemia
  GI50: 0.725 µM and 0.487 µM
  TGI: 2.98 µM and 5.53 µM
U251 CNS
  GI50: 0.929 µM and 0.987 µM
  TGI: 17.3 µM and 10.7 µM
LOX IMVI melanoma
  GI50: 0.758 µM and 0.403 µM
  TGI: 4.22 µM and 2.61 µM
UACC-62 melanoma
  GI50: 0.908 µM and 2.11 µM
  TGI: 6.93 µM and 12.6 µM
RXF 393 renal
  GI50: 0.66 µM and 1.76 µM
  TGI: 2.15 µM and 12.6 µM
T-47D breast
  GI50: 0.492 µM and 0.224 µM
  TGI: 2.61 µM and 4.21 µM
K-562 leukemia
  GI50: 0.221 µM and 1.06 µM
SF-295 CNS
  TGI: 11.3 µM and > 100 µM
SF-539 CNS
  GI50: 0.642 µM and 0.428 µM
  TGI: 1.62 µM and 1.87 µM
PC-3 prostate
  GI50: 1.42 µM
  TGI: > 100 µM

## N=C(CC(=O)Nc1ccccn1)c1ccccc1
RPMI-8226 leukemia
  TGI: > 100 µM
U251 CNS
  TGI: > 100 µM
LOX IMVI melanoma
  TGI: > 100 µM
UACC-62 melanoma
  TGI: > 100 µM
RXF 393 renal
  TGI: > 100 µM
T-47D breast
  TGI: > 100 µM
K-562 leukemia
  TGI: > 100 µM
SF-295 CNS
  TGI: > 100 µM
SF-539 CNS
  TGI: > 100 µM
PC-3 prostate
  TGI: > 100 µM

## O=C1NC(=NCCc2ccc(Br)cc2)S/C1=C\c1ccc2ncccc2c1
RPMI-8226 leukemia
  GI50: > 25 µM
  TGI: > 25 µM
U251 CNS
  GI50: > 18.9 µM
  TGI: > 25 µM
LOX IMVI melanoma
  GI50: > 25 µM
  TGI: > 25 µM
UACC-62 melanoma
  GI50: > 25 µM
  TGI: > 25 µM
RXF 393 renal
  GI50: > 20.9 µM
  TGI: > 25 µM
T-47D breast
  GI50: > 17.1 µM
  TGI: > 25 µM
K-562 leukemia
  GI50: 24.6 µM
  TGI: > 25 µM
SF-295 CNS
  GI50: > 23.2 µM
  TGI: > 25 µM
SF-539 CNS
  GI50: 14.5 µM
  TGI: > 25 µM
PC-3 prostate
  GI50: > 25 µM
  TGI: > 25 µM

## NS(=O)(=O)c1ccc(N=Nc2c[nH]c(=O)c(O)c2)cc1
RPMI-8226 leukemia
  TGI: > 100 µM
U251 CNS
  TGI: 46.3 µM
LOX IMVI melanoma
  TGI: > 100 µM
UACC-62 melanoma
  TGI: > 100 µM
RXF 393 renal
  TGI: > 100 µM
T-47D breast
  TGI: > 100 µM
K-562 leukemia
  TGI: > 100 µM
SF-295 CNS
  TGI: > 100 µM
SF-539 CNS
  TGI: > 100 µM
PC-3 prostate
  TGI: > 100 µM

## CN(CCCCCl)P(=O)(OCc1ccc([N+](=O)[O-])o1)OCC1OC(n2cc([N+](=O)[O-])c(=O)[nH]c2=O)CC1O (stereo not drawn)
RPMI-8226 leukemia
  GI50: > 100 µM
  TGI: > 100 µM
U251 CNS
  GI50: > 100 µM
  TGI: > 100 µM
LOX IMVI melanoma
  GI50: 47.3 µM
  TGI: > 100 µM
UACC-62 melanoma
  GI50: 49.2 µM
  TGI: > 100 µM
RXF 393 renal
  GI50: > 100 µM
  TGI: > 100 µM
T-47D breast
  GI50: > 100 µM
  TGI: > 100 µM
K-562 leukemia
  GI50: 49.8 µM
  TGI: > 100 µM
SF-295 CNS
  GI50: 49.8 µM
  TGI: > 100 µM
SF-539 CNS
  GI50: 4.51 µM
  TGI: > 100 µM
PC-3 prostate
  GI50: > 100 µM
  TGI: > 100 µM
